In patent US20130296239A1, “Material for Wound Healing and Skin Reconstruction” (3-D Matrix, Ltd., priority 2007, published 2013):
Values joined by “and” are separate entries in the source; they are usually repeats but may differ in a detail not shown here. Equal values may be shown once.

Key:
[1] = tested on: skin wound model mice (1 cm×1 cm wound); test: Skin wound model of mice: wound area and observation of the affected area; assay type: in vivo, NTaC:NIHS-Foxn1 <nu> type nude mice
Protocol: 30 NTaC:NIHS-Foxn1 type nude mice (female, weight ˜20 g) were used as experimental animals. The mice were housed in the condition of a temperature of 17 to 26° C., a relative humidity of 30 to 70%, a 12-hour light/dark cycle, minimum of ten fresh air changes/hour, and diet was provided once daily and the mice had access to water ad libitum.
Anesthesia was induced by placing the mice in a chamber filled with isoflurane at 2.5 to 4%, and maintained with isoflurane delivered through a nose cone at 0.5 to 2.5%.
All residual hair was removed from the upper right dorsum, and the operative area was cleaned with three alternating scrubs of povidone-iodine scrub and 70% alcohol. Once the alternating scrubs were complete, a final application of povidone-iodine scrub was applied and allowed to dry. The area was draped for aseptic surgery.
Forceps were used to pinch up a fold of skin (at what would become the lower right corner of the wound), and scissors were used to separate the skin and create a 1 cm×1 cm wound. Blood was soaked up with a sterile gauze pad.
(b-1) The centrifuge tube was placed into a cool water bath. The bath was sonicated for 30 min, and then the contents of the tube were vortexed for one minute. Air bubbles were then removed via centrifugation (3000 rpm, 1 min). Vortexing and centrifugation were repeated as necessary to remove all bubbles. The 1% PuraMatrix (trade mark) solution was prepared and administered to animals in test group-1.
(b-2) The 5 ng/μL hbFGF PBS solution (20 μL) was added to the sterile centrifuge tube previously containing 1 mL of 1% PuraMatrix (trade mark). The mixture was then vortexed to homogenize. The centrifuge tube was placed into the cool water bath and sonicated for 30 min, vortexed for 1 min, then centrifuged at room temperature (3000 rpm, 1 min) to remove air bubbles. Vortexing and centrifugation were repeated as necessary to remove all air bubbles. The PuraMatrix+hbFGF solution obtained was administered to animals in the test group-2.
The 30 skin wound model mice produced in (a) were divided into three groups of 10 mice, and treated according to the scheme in Table 1 immediately after the surgical procedure. The day when surgical procedure was performed (wound creation) was regarded as Day 0. Observation of wound area was performed at just before a treatment on Day 0 (FIG. 1), Day 7 (FIG. 2), Day 14 (FIG. 3), Day 21 (FIG. 4) and Day 28 (FIG. 5).
Baseline wound measurements were recorded prior to the application of the first dressing. Weekly measurements were obtained by removing the dressing of self-assembling hydropeptide gel (for the control group, a petroleum jelly impregnated gauze only) and exposing the wound site. A ruler was placed adjacent to the wound area and digital photographs were obtained, thereafter, the wound was re-dressed with the self-assembling hydropeptide gel (for the control group, a petroleum jelly impregnated gauze only). Wound area was calculated using ImageJ version 1.37 at the NIH website.

[2] = tested on: wound area of skin wound model mice; test: Histopathological observation of wound area on Day 28; assay type: in vivo, nude mice; set-up: key to Vascularization: 0: Decreased vascularity compared to normal dermis.; 1: Dermal vascularity within normal limits.; 2: Minimally increased prominence of dermal or wound capillaries.; 3: Mild increase in prominence of dermal or wound capillaries.; 4: Moderate increase in prominence of dermal or wound capillaries; key to Collagen quality: 0: Lack of fibroplasia and/or collagen in wound.; 1: Minimal to mild fibroplasia in the granulation tissue of the wound.; 2: Moderate fibroplasia and collagen throughout the wound.; 3: Superficial portion of the wound has dense collagen similar to normal dermal collagen.; 4: Dense collagen throughout the wound; key to Inflammation: 0: No increase in inflammatory cells (within normal limits for dermis of nude mice).; 1: Minimal increase in inflammatory cells.; 2: Mild increase in inflammatory cells.; 3: Moderate increase in inflammatory cells.; 4: Marked increase in inflammatory cells; key to Epithelization: 0: No re-epithelization.; 1: Partial re-epithelization. (Wound surface is not completely covered by epithelial cells.); 2: Re-epithelization across the full surface of the wound, but the epithelium is not a stratified squamous epithelium with multiple strata; 3: Re-epithelization across the full surface of the wound with a stratified squamous epithelium and keratinization, but there is evidence of active remodeling; 4: Complete re-epithelization with a keratinized stratified squamous epithelium with remodeling and organization within normal limits
Protocol: In order to evaluate parameters of wound healing in the skin of nude mice from three groups, histopathological examination was carried out.
After the observation on Day 28, each mouse was sacrificed and a paraffin block containing the wound area, through the center of each wound perpendicular to the apparent longest axis was produced. A hematoxylin and eosin-stained and a trichrome-stained histologic sections were prepared from each block. Using the H&E-stained section, the epithelization, vascularization, and inflammation associated with the wound were ranked, and using the trichrome-stained section the amount and quality of collagen in the area of the wound were evaluated. The results of these evaluations were shown in Table 2-1 (control group), Table 2-2 (test group-1), and Table 2-3 (test group-2).
Definitions for each score are as follows.
0=No re-epithelization. 1=Partial re-epithelization. (Wound surface is not completely covered by epithelial cells.) 2=Re-epithelization across the full surface of the wound, but the epithelium is not a stratified squamous epithelium with multiple strata (stratum basale, stratum spinosum, stratum granulosum). 3=Re-epithelization across the full surface of the wound with a stratified squamous epithelium and keratinization, but there is evidence of active remodeling in the form of apoptotic or necrotic cells or dyskeratosis, or multiple mitotic figures, or irregular thickness or irregular strata (hyperplasia). 4=Complete re-epithelization with a keratinized stratified squamous epithelium with remodeling and organization within normal limits. (The only alteration is lack of hair follicles and adenexia in the dermis.)
0=Decreased vascularity compared to normal dermis. 1=Dermal vascularity within normal limits. […] Increased prominence may be due to increased number, dilation (congestion or hyperemia), or increased size. 3=Mild increase in prominence of dermal or wound capillaries. 4=Moderate increase in prominence of dermal or wound capillaries. <Inflammation> Inflammation consisted of increased number of neutrophils and macrophages in the dermis and scar tissue beneath the epidermis. […] 0=No increase in inflammatory cells (within normal limits for dermis of nude mice). 1=Minimal increase in inflammatory cells. Inflammation tends to be multifocal, perivascular. 2=Mild increase in inflammatory cells. Inflammation tends to be multifocal, perivascular. 3=Moderate increase in inflammatory cells. 4=Marked increase in inflammatory cells.
0=Lack of fibroplasia and/or collagen in wound. 1=Minimal to mild fibroplasia in the granulation tissue of the wound. 2=Moderate fibroplasia and collagen throughout the wound. 3=Superficial portion of the wound has dense collagen similar to normal dermal collagen. 4=Dense collagen throughout the wound. There are relatively fewer fibroblasts and the collagen is slightly denser than normal dermis.
Depth of collagen (μm) beneath the epithelium in the wound was estimated at the thickest portion of the collagen using an ocular micrometer that was calibrated with an objective micrometer (×10).

[3] = liquid when pH is not higher than 5.0; cited from earlier work
[4] = Day 28, compared to control group
[5] = rank score, Day 28, H&E-stained section, one value per mouse

Ac-(RADA)4-CONH2 [PuraMatrix]
wound area ([1]; Day 7, compared to control group (FIG. 2)): decreased drastically | healing rate (ratio of the wound area to the area when wound created, FIG. 6) ([1]; Day 7 and Day 14, compared to control group, 100 μL to wound area): healing more quickly than those in the control group | healing of the wound area ([1]; Day 14 (FIG. 3)): almost complete | healing of the wounds ([1]; Day 21 (FIG. 4)): completely healed | puckering of skin ([1]; Day 21, compared to control group (FIG. 4)): less puckering of skin | scar ([1]; Day 28, observation before dissection): visible in all animals | wound contraction noted ([1]; Day 28, observation before dissection, all animals in control group (FIG. 5)): 8/10 | overall wound healing effect ([1]; conclusion from Day 0-28 observations): significant healing effect visibly recognized | Collagen depth ([2]; Day 28, beneath the epithelium at thickest portion of collagen, one value per mouse): 550 μm (2×) and 250 μm (3×) and 470 μm and 500 μm (2×) and 540 μm and 200 μm | ranking of epithelization and vascularization across groups ([2]; Day 28, compared across the three groups): little difference | mice with an inflammation rank 0 [2, 4]: larger numbers of mice | mice with dense collagen throughout the wound scar [2, 4]: larger numbers of mice | typical state of wound area structure in pathological section ([2]; Day 28, photomicrograph, compared to control group (FIG. 8, FIG. 9)): there is dense collagen so that the dermis 2 is slightly more stained | mice with rank scores 4, 1, 0, 4 (most advanced wound healing) ([2]; Day 28, no mice in control group): one | Epithelization [2, 5]: 4 (5×) and 3 (5×) | Inflammation [2, 5]: 1 (5×) and 0 (3×) and 2 (2×) | Vascularization [2, 5]: 2 (6×) and 1 (4×) | Collagen quality ([2]; rank score, Day 28, trichrome-stained section, one value per mouse): 3 (3×) and 4 (7×) | pH at which the peptide solution forms a gel (self-assembles into nanofibers) [3]: higher than 5.0
